# Laboratory results reported in patent US20250195536A1, “BICYCLOOCTANE KRAS INHIBITORS” (Incyte Corporation, priority 2023, published 2025).
# Columns and labels:
# [1] = Caco2 assay (permeability, Papp A-B); assay type: in vitro ADME; conditions: human, Caco-2, absorptive direction (A-B), 50 μM test compound, 4% BSA in receiver
# Method: Caco-2 cells are grown at 37° C. in an atmosphere of 5% CO2 in DMEM growth medium supplemented with 10% (v/v) fetal bovine serum, 1% (v/v) nonessential amino acids, penicillin (100 U/mL), and streptomycin (100 μg/mL). Confluent cell monolayers are subcultured every 7 days or 4 days for Caco-2 by treatment with 0.05% trypsin containing […]. Caco-2 cells are seeded in 96-well Transwell plates. The seeding density for Caco-2 cells is 14,000 cells/well. DMEM growth medium is replaced every other day after seeding. Cell monolayers are used for transport assays between 22 and 25 days for Caco-2 cells.
# Cell culture medium is removed and replaced with HBSS. To measure the TEER, the HBSS is added into the donor compartment (apical side) and receiver compartment (basolateral side). The TEER is measured by using a REMS Autosampler to ensure the integrity of the cell monolayers. Caco-2 cell monolayers with TEER values 300 Ω·cm^2 are used for transport experiments. To determine the Papp in the absorptive direction (A-B), solution of test compound (50 μM) in HBSS is added to the donor compartment (apical side), while HBSS solution with 4% BSA is added to the receiver compartment (basolateral side). The apical volume was 0.075 mL, and the basolateral volume is 0.25 mL. The incubation period is 120 min. at 37° C. in an atmosphere of 5% CO2. At the end of the incubation period, samples from the donor and receiver sides are removed and an equal volume of MeCN is added for protein precipitation. The supernatants are collected after centrifugation (3000 rpm, Allegra X-14R Centrifuge from Beckman Coulter, Indianapolis, IN) for LCMS analysis. The permeability value is determined according to the equation:
# Papp(cm/s)=(F*VD)/(SA*MD),
# where the flux rate (F, mass/time) is calc. from the slope of cumulative amounts of compound of interest on the receiver side, SA is the surface area of the cell membrane, VD is the donor volume, and MD is the initial amount of the solution in the donor chamber.
# The symbol “+” indicates a Caco-2 value of ≤0.5, “++” indicates a Caco-2 value of >0.5 but ≤1; and “+++” indicates a Caco-2 value of >1. “NA” indicates Caco-2 value not available.
# KRAS G12V = KRAS G12V (Homo sapiens, UniProt P01116, G12V); assay: GDP-GTP exchange assay (KRAS G12V); assay type: biochemical; conditions: bodipy-GDP/GppNHp exchange with SOS1; 3 h incubation after GppNHp-SOS1;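 further: one dagger IC50 up to 100 nM and two daggers above 100 nM up to 1 μM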
# Sequence of KRAS G12V (P01116 1-188 isoform P01116-2 G12V): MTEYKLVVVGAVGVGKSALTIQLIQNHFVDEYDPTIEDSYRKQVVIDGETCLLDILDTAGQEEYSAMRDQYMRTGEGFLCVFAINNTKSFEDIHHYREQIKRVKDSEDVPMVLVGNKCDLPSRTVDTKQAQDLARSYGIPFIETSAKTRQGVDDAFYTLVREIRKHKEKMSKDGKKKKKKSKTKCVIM
# Outline: (§1)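 IC50 came from a four-parameter fit of fluorescence loss (485/520 nm) as SOS1 (150 nM) swapped bodipy-GDP for GppNHp (500 μM) on 2.5 nM KRAS, final concentrations. Compounds were pre-incubated 4 h at r.t. (pH 7.5 Hepes, 10 mM MgCl2); exchange ran 2 h (G12D) or 3 h (G12V).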
# KRAS G12D = KRAS G12D (Homo sapiens, UniProt P01116, G12D); assay: GDP-GTP exchange assay (KRAS G12D); assay type: biochemical; conditions: bodipy-GDP/GppNHp exchange with SOS1; 4 h pre-incubation, 2 h reaction;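 further: one dagger IC50 up to 100 nM and two daggers above 100 nM up to 1 μM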
# Sequence of KRAS G12D (P01116 1-188 isoform P01116-2 G12D): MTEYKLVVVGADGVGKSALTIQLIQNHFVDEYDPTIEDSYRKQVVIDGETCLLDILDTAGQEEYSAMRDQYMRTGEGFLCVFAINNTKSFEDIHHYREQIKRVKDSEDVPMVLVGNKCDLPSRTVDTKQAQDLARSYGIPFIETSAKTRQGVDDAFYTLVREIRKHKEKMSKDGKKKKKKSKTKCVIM
# Outline: as §1
Structure (SMILES),"Papp A→B at 120 min, 50 μM [1]",G12V_exchange (KRAS_G12V exchange assay IC50) (KRAS G12V),G12D_exchange (KRAS_G12D exchange assay IC50) (KRAS G12D)
"Cc1nc2c(F)c(-c3cccc(Cl)c3Cl)c(CCC#N)cc2c2c1cc([C@H]1[C@H]3C[C@H](CN(c4cccc(C(F)(F)F)c4)C3)N1C(=O)C1CC1)n2[C@H]1[C@H]2CN[C@@H]1C2 (atropisomer, axis not shown; (Ra)) [Example 10, 3-((Ra)-1-((1R,4R,5S)-2-azabicyclo[2.1.1]hexan-5-yl)-2-((1S,5R,7R)-6-(cyclopropanecarbonyl)-3-(3-(trifluoromethyl)phenyl)-3,6-diazabicyclo[3.2.1]octan-7-yl)-7-(2,3-dichlorophenyl)-6-fluoro-4-methyl-1H-pyrrolo[3,2-c]quinolin-8-yl)propanenitrile]",≤ 0.5 ×10⁻⁶ cm/s,†,††
"Cc1nc2c(F)c(-c3cccc(Cl)c3Cl)c(CCC#N)cc2c2c1cc([C@H]1[C@H]3C[C@H](CN(c4ccc(Cl)c(Cl)c4)C3)N1C(=O)C1CC1)n2[C@H]1[C@H]2CN[C@@H]1C2 (atropisomer, axis not shown; (Ra)) [Example 15, 3-((Ra)-1-((1R,4R,5S)-2-azabicyclo[2.1.1]hexan-5-yl)-2-((1S,5R,7R)-6-(cyclopropanecarbonyl)-3-(3,4-dichlorophenyl)-3,6-diazabicyclo[3.2.1]octan-7-yl)-7-(2,3-dichlorophenyl)-6-fluoro-4-methyl-1H-pyrrolo[3,2-c]quinolin-8-yl)propanenitrile]",≤ 0.5 ×10⁻⁶ cm/s,††††,†††
"Cc1nc2c(F)c(-c3cccc(Cl)c3Cl)c(CCC#N)cc2c2c1cc([C@H]1[C@H]3C[C@H](CN(c4ccc(C#N)cc4)C3)N1C(=O)C1CC1)n2[C@H]1[C@H]2CN[C@@H]1C2 (atropisomer, axis not shown; (Ra)) [Example 4, 4-((1S,5R,7R)-7-((Ra)-1-((1R,4R,5S)-2-azabicyclo[2.1.1]hexan-5-yl)-8-(2-cyanoethyl)-7-(2,3-dichlorophenyl)-6-fluoro-4-methyl-1H-pyrrolo[3,2-c]quinolin-2-yl)-6-(cyclopropanecarbonyl)-3,6-diazabicyclo[3.2.1]octan-3-yl)benzonitrile]",≤ 0.5 ×10⁻⁶ cm/s,†,†
"Cc1nc2c(F)c(-c3cccc(Cl)c3Cl)c(CCC#N)cc2c2c1cc([C@H]1[C@H]3C[C@H](CN(c4cn(C)nc4C(F)(F)F)C3)N1C(=O)C1CC1)n2[C@H]1[C@H]2CN[C@@H]1C2 (atropisomer, axis not shown; (Ra)) [Example 29, 3-((Ra)-1-((1R,4R,5S)-2-azabicyclo[2.1.1]hexan-5-yl)-2-((1S,5R,7R)-6-(cyclopropanecarbonyl)-3-(1-methyl-3-(trifluoromethyl)-1H-pyrazol-4-yl)-3,6-diazabicyclo[3.2.1]octan-7-yl)-7-(2,3-dichlorophenyl)-6-fluoro-4-methyl-1H-pyrrolo[3,2-c]quinolin-8-yl)propanenitrile]",≤ 0.5 ×10⁻⁶ cm/s,†,†
"Cc1nc2c(F)c(-c3cccc(Cl)c3Cl)c(CCC#N)cc2c2c1cc([C@H]1[C@H]3C[C@H](CN(c4cncc(C(F)(F)F)c4)C3)N1C(=O)C1CC1)n2[C@H]1[C@H]2CN[C@@H]1C2 (atropisomer, axis not shown; (Ra)) [Example 21, 3-((Ra)-1-((1R,4R,5S)-2-azabicyclo[2.1.1]hexan-5-yl)-2-((1S,5R,7R)-6-(cyclopropanecarbonyl)-3-(5-(trifluoromethyl)pyridin-3-yl)-3,6-diazabicyclo[3.2.1]octan-7-yl)-7-(2,3-dichlorophenyl)-6-fluoro-4-methyl-1H-pyrrolo[3,2-c]quinolin-8-yl)propanenitrile]",≤ 0.5 ×10⁻⁶ cm/s,†,†

# Continued, values first:
"Papp A→B at 120 min, 50 μM [1]",G12V_exchange (KRAS_G12V exchange assay IC50) (KRAS G12V),G12D_exchange (KRAS_G12D exchange assay IC50) (KRAS G12D),Structure (SMILES)
> 1 ×10⁻⁶ cm/s,†,†,"Cc1nc2c(F)c(-c3cccc(Cl)c3Cl)c(CCC#N)cc2c2c1cc([C@H]1CCN(c3ccccc3)CCN1C(=O)C1CC1)n2[C@H]1[C@H]2CN[C@@H]1C2 (atropisomer, axis not shown; (Ra)) [Example 117, 3-((Ra)-1-((1R,4R,5S)-2-Azabicyclo[2.1.1]hexan-5-yl)-2-((R)-4-(cyclopropanecarbonyl)-1-phenyl-1,4-diazepan-5-yl)-7-(2,3-dichlorophenyl)-6-fluoro-4-methyl-1H-pyrrolo[3,2-c]quinolin-8-yl)propanenitrile]"
≤ 0.5 ×10⁻⁶ cm/s,†,†,"Cc1ncnc(N2C[C@@H]3C[C@H](C2)N(C(=O)C2CC2)[C@H]3c2cc3c(C)nc4c(F)c(-c5cccc(Cl)c5Cl)c(CCC#N)cc4c3n2[C@H]2[C@H]3CN[C@@H]2C3)c1F (atropisomer, axis not shown; (Ra)) [Example 31, 3-((Ra)-1-((1R,4R,5S)-2-Azabicyclo[2.1.1]hexan-5-yl)-2-((1 S,5R,7R)-6-(cyclopropanecarbonyl)-3-(5-fluoro-6-methylpyrimidin-4-yl)-3,6-diazabicyclo[3.2.1]octan-7-yl)-7-(2,3-dichlorophenyl)-6-fluoro-4-methyl-1H-pyrrolo[3,2-c]quinolin-8-yl)propanenitrile]"
≤ 0.5 ×10⁻⁶ cm/s,†,†,"Cc1nc2c(F)c(-c3cccc(Cl)c3Cl)c(CCC#N)cc2c2c1cc([C@H]1[C@H]3C[C@H](CN(c4cscn4)C3)N1C(=O)C1CC1)n2[C@H]1[C@H]2CN[C@@H]1C2 (atropisomer, axis not shown; (Ra)) [Example 93, 3-((Ra)-1-((1R,4R,5S)-2-azabicyclo[2.1.1]hexan-5-yl)-2-((1S,5R,7R)-6-(cyclopropanecarbonyl)-3-(thiazol-4-yl)-3,6-diazabicyclo[3.2.1]octan-7-yl)-7-(2,3-dichlorophenyl)-6-fluoro-4-methyl-1H-pyrrolo[3,2-c]quinolin-8-yl)propanenitrile]"
≤ 0.5 ×10⁻⁶ cm/s,†,††,"Cc1nc2c(F)c(-c3cccc(Cl)c3Cl)c(CCC#N)cc2c2c1cc(C1C3CC(CN(C)C3=O)N1C(=O)C1CC1)n2C1C2CNC1C2 (atropisomer, axis not shown; (Ra)) [Example 112, 3-((Ra)-1-((1R,4R,5S)-2-Azabicyclo[2.1.1]hexan-5-yl)-2-((1R,5R,7R)-6-(cyclopropanecarbonyl)-3-methyl-2-oxo-3,6-diazabicyclo[3.2.1]octan-7-yl)-7-(2,3-dichlorophenyl)-6-fluoro-4-methyl-1H-pyrrolo[3,2-c]quinolin-8-yl)propanenitrile]"
≤ 0.5 ×10⁻⁶ cm/s,†,†,"Cc1cc(N2C[C@@H]3C[C@H](C2)N(C(=O)C2CC2)[C@H]3c2cc3c(C)nc4c(F)c(-c5cccc(Cl)c5Cl)c(CCC#N)cc4c3n2[C@H]2[C@H]3CN[C@@H]2C3)cc(=O)o1 (atropisomer, axis not shown; (Ra)) [Example 80]"
≤ 0.5 ×10⁻⁶ cm/s,†,†,"CCn1ccc(N2C[C@@H]3C[C@H](C2)N(C(=O)C2CC2)[C@H]3c2cc3c(C)nc4c(F)c(-c5cccc(Cl)c5Cl)c(CCC#N)cc4c3n2[C@H]2[C@H]3CN[C@@H]2C3)cc1=O (atropisomer, axis not shown; (Ra)) [Example 67, 3-((Ra)-1-((1R,4R,5S)-2-azabicyclo[2.1.1]hexan-5-yl)-2-((1S,5R,7R)-6-(cyclopropanecarbonyl)-3-(1-ethyl-2-oxo-1,2-dihydropyridin-4-yl)-3,6-diazabicyclo[3.2.1]octan-7-yl)-7-(2,3-dichlorophenyl)-6-fluoro-4-methyl-1H-pyrrolo[3,2-c]quinolin-8-yl)propanenitrile]"
